Assay results published in ChEMBL document CHEMBL1133833, “Dopaminergic 7-aminotetrahydroindolizines: ex-chiral pool synthesis and preferential D3 receptor binding” (Bioorg Med Chem Lett, 2001).

Tests used:
D(2) dopamine receptor [1] = molecular target: T1, D(2) dopamine receptor (Bos taurus, UniProt P20288); assay: In vitro ability to displace [3H]pramipexole from high affinity binding sites of bovine D2 receptors in striatal membranes.
D(1A) dopamine receptor = D(1A) dopamine receptor (Bos taurus, UniProt Q95136); assay: In vitro ability to displace [3H]SCH-23390 from bovine Dopamine receptor D1 in striatal membranes.
D(2) dopamine receptor [2] = molecular target: T1, D(2) dopamine receptor; assay: In vitro ability to displace [3H]-spiperone from bovine cloned Dopamine receptor D2 stably expressed in CHO cells.; assay type: cell-based
D(3) dopamine receptor = D(3) dopamine receptor (Homo sapiens, UniProt P35462)
Sequence of D(3) dopamine receptor (P35462 whole entry): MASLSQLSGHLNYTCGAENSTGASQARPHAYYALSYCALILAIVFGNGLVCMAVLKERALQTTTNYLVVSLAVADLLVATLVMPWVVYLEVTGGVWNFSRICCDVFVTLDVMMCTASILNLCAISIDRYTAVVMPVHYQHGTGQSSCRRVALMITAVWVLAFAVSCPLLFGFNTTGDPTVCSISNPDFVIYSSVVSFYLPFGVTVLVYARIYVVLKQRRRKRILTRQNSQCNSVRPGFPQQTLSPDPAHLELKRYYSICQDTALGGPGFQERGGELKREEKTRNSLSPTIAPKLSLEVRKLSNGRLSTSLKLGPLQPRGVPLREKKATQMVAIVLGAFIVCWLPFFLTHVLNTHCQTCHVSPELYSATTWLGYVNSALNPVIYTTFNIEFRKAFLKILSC
Description: In vitro ability to displace [3H]spiperone from human cloned Dopamine receptor D3 stably expressed in CHO cells.

T1 sequence (P20288 whole entry): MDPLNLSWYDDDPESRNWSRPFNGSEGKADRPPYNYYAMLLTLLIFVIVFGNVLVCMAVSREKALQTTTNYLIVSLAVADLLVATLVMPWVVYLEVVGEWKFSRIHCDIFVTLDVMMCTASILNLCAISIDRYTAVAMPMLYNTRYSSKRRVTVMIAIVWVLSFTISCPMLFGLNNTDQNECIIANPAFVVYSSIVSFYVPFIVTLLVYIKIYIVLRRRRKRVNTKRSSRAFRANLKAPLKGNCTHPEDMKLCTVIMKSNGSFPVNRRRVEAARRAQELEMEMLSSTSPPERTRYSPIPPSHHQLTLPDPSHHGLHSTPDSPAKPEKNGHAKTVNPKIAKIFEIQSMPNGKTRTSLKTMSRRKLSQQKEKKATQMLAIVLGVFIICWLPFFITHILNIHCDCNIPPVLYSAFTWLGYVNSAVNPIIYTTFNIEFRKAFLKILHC
Sequence of D(1A) dopamine receptor (Q95136 whole entry): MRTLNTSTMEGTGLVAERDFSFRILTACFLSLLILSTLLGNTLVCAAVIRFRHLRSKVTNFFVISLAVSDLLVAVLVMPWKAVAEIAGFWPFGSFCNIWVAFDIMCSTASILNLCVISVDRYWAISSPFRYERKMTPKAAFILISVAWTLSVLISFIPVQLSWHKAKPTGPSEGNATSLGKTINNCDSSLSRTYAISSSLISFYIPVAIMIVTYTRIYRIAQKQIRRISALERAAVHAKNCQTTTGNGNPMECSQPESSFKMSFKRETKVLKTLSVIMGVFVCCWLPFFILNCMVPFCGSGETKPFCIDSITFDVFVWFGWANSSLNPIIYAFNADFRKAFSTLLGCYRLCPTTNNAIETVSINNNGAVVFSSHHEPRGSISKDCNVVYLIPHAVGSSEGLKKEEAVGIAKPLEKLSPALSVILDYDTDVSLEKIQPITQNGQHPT

SMILES | Ki (D(2) dopamine receptor [1]) [µM] | Ki (D(1A) dopamine receptor) [µM] | Ki (D(2) dopamine receptor [2]) [µM] | Ki (D(3) dopamine receptor) [µM]
CCCN(CCC)[C@@H]1CCn2cc(CO)cc2C1 | 1 | > 100 | 34 | 1.4
CCCN(CCC)[C@H]1CCn2ccc(CO)c2C1 | 8 | > 100 | 55 | 9.7
CCCN(CCC)[C@H]1CCn2cc(C)cc2C1 | 0.64 | 44 | 9.6 | 0.77
CCCN(CCC)[C@@H]1CCn2ccc(C=O)c2C1 | 0.38 | 80 | 12 | 0.51
CCCN(CCC)[C@H]1CCn2ccc(C)c2C1 | 0.38 | 68 | 4 | 0.75
CCCN(CCC)[C@H]1CCn2c(CO)ccc2C1 | 0.087 | 13 | 5.5 | 0.42
CCCN(CCC)[C@@H]1CCn2c(CO)ccc2C1 | 4.7 | > 100 | 37 | 7.4
CCCN(CCC)[C@@H]1CCn2cc(C)cc2C1 | 0.8 | 83 | 17 | 1.3
CCCN(CCC)[C@@H]1CCn2ccc(C)c2C1 | 1 | 71 | 12 | 2.1
CCCN(CCC)[C@@H]1CCn2ccc(CO)c2C1 | 0.2 | 100 | 6.1 | 0.33
CCCN(CCC)[C@H]1CCn2ccc(C=O)c2C1 | 1.6 | > 100 | 5.9 | 3.6
CCCN(CCC)[C@@H]1CCn2c(C)ccc2C1 | 0.43 | 12 | 1.3 | 0.59
CCCN(CCC)[C@@H]1CCn2c(C=O)ccc2C1 | 1.7 | 47 | 21 | 1.8
CCCN(CCC)[C@H]1CCn2c(C=O)ccc2C1 | 0.021 | 26 |  | 
CCCN(CCC)[C@@H]1CCn2cccc2C1 | 0.15 | > 100 | 4.1 | 0.56
CCCN(CCC)[C@H]1CCn2c(C)ccc2C1 | 0.15 | 29 | 3.8 | 0.43
CCCN(CCC)[C@H]1CCn2cc(CO)cc2C1 | 13 | > 100 | > 100 | 8.6
